Experimental data from patent publication US20250249001A1, “METHODS OF TREATING SUBSTANCE USE DISORDER WITH 4-(3-CYANOPHENYL)-6-PYRIDINYLPYRIMIDINE MGLU5 NEGATIVE ALLOSTERIC MODULATORS” (Tempero Bio, Inc., priority 2022, published 2025).

Legend:
[1] = system: cocaine-induced CPP in male SD rats; format: in vivo, Sprague Dawley rats; details: cocaine 10 mg/kg IP on days 3, 5, 7, 9; day 10 bias test
Procedure: Animals: Male Sprague Dawley rats (Envigo, IN, 275-299 g) were group housed upon arrival (2 per cage). All rats were examined and handled to assure adequate health and suitability. During the study, a 12/12 light/dark cycle was maintained (lights switched on at 7:00 am). The room temperature was maintained between […] and 23° C. with a relative humidity maintained around 50%. Chow (LabDiet #5001) and water were provided ad libitum for the duration of the study. The test was performed during the animal's light cycle phase.
Cocaine (10 mg/kg) was dissolved in saline and injected IP at a dose volume of 1 ml/kg. Cocaine was administered on training days 3, 5, 7 and 9 immediately prior to training.
3-((2-Methyl-4-thiazolyl)ethynyl)pyridine (MTEP, 3 mg/kg), was dissolved in saline and injected IP on day 10 (bias test) at a dose volume of 1 ml/kg 30 minutes prior to testing.
Compound 1 (1, 3 and 10 mg/kg) was formulated in 10% Solutol HS15 and 90% (10% aqueous 2-hydroxypropyl-β-cyclodextrin) and injected IP on day 10 (bias test) at a dose volume of 2 ml/kg. Compound 1 was administered 30 minutes prior to testing.
The chamber used in this study contained two compartments [(60 cm (L)×40 cm (W)×24 cm (H)]. The compartment used for each animal and drug pairing was assigned and counterbalanced in advance and adjusted as necessary in the rebalancing procedure after day 1 (see details below). Within the chamber, visual and physical features were used to create the two distinct compartments. For example, one compartment may have a flat plastic floor with white stripes and the other may have a textured floor and black stripes. The chambers were cleaned with 70% alcohol in between runs.
Testing sessions were recorded on days 1 and 10 to determine time spent (seconds) in each chamber.
Day 1 Pre-conditioning/Habituation: Animals are allowed to explore the entire testing chamber freely for 20 min. Animals that display a strong preference for one compartment (>75% time spent in one compartment) are excluded.
Rebalancing Procedure: Animals are rebalanced following day 1 scoring if the difference between groups for time spent in one compartment is greater than 15%.
Days 2-9 Conditioning: All animals are treated with saline on days 2, 4, 6, and 8 and with cocaine or saline on days 3, 5, 7, and 9 depending on their assigned group. Animals are confined to their assigned compartment (saline- or cocaine-paired compartment) for 20 minutes following dosing.
Day 10 Post-conditioning bias test: Animals are dosed once with either saline, MTEP or Compound 1 (1, 3 and 10 mg/kg) according to their assigned. Following dosing, animals are allowed to explore the testing chamber freely for 20 minutes with the compartment dividing door open. Their activity exploring the chamber is recorded for analysis.
Statistical Analysis: Statistical analysis was conducted using GraphPad Prism 9. Scorers blinded to the treatment groups scored the amount of time each animal spent exploring each chamber on days 1 and 10. For bias test data, a one-way analysis of variance (ANOVA) followed by Dunnett's post hoc test was used. Significance was set at p<0.05 and values exceeding two standard deviations of the mean were considered statistical outliers and were excluded from the analysis. Additionally, if an animal spent >85% or <15% of the time in one compartment even without any obvious signs of sedation or locomotor dysfunction, they were excluded from the analysis.

[2] = system: voluntary home-cage alcohol drinking by Wistar rats; experiment: Home-cage two-bottle choice alcohol drinking, acute treatment; format: in vivo
Procedure: Animals: Male Wistar rats (Charles River Laboratories, INC) were used in these studies. Rat housing and testing was conducted at the University of North Carolina at Chapel Hill (UNC-CH) School of Medicine in a state-of-the-art rodent vivarium approved by the Association for Assessment and Accreditation of Laboratory Animal Care International (AAALAC). Rat health was monitored daily by study investigators and veterinarians in the Division of Comparative Medicine UNC. All experimental procedures were carried out in accordance with the NIH Guide to Care and Use of Laboratory Animals (Committee for the Update of the Guide for the Care and Use of Laboratory Animals, 2011) and institutional guidelines.
Rats were housed individually in standard Plexiglas cages with standard rodent food and water available ad libitum. Upon arrival from the vendor, rats were given 7 days to acclimate to the vivarium during which they were weighed and handled by an investigator each day to monitor general health and habituate them to human contact. Rats were then weighed each day within 1-h of experimental procedures to calculate drug dosages relative to body weight. […] The colony was maintained at […] on a 12-hour light/dark cycle, with the lights on from 10 AM-10 PM. All behavioral experiments were conducted during the light portion of the light cycle.
Home-cage alcohol drinking method. Oral alcohol and water intake were examined using a two-bottle choice protocol, which is standard in the field and commonly used in our laboratory. Male Wistar rats (n=12) were first adapted to drinking from a 50 ml conical tube fitted with a standard stainless-steel ball bearing sipper tube that limits spillage. Then, two bottles were place on the cage daily. One bottle contained an alcohol solution and the other contained water. Bottles containing fresh solutions were weighed daily before and after a 24 hr access period. After drug treatment, bottles were weighed after 1 hr and 24 hrs of access. Each week, rats had 4-5 days of sweetened alcohol and water available and the remaining days only water.
Briefly, rats were first exposed to alcohol (10% v/v)+sucrose (5% w/v). versus water in the two bottles. Then, over a period of 6-weeks, the concentrations of alcohol and sucrose were gradually adjusted to alcohol (8% v/v)+sucrose (2% w/v) to achieve intake of pharmacologically relevant doses of alcohol. Rats were maintained at this concentration for the duration of the experiment for both acute (3.1.a) and chronic (3.1.b) home-cage drinking studies. Use of sweetened alcohol solutions in preclinical research provides face validity to the binge-intoxication stage of alcohol addiction in humans where sweeteners are commonly added to alcohol.
Compound 1 treatment. After establishing baseline intake of sweetened alcohol and water, rats were habituated to i.p. injections. All rats (N=12) were administered 3 habituation injections of vehicle (10% w/v kolliphor in BCD (10%)) prior to the Compound 1 dose response curve and alcohol intake was measured. Then, the Compound 1 dose response curve was conducted with dose order randomized according to a modified Latin-Square design. Rats were given a minimum of 1-2 days between injections to ensure normal drinking was re-established in absence of drug administration. Each dose of Compound 1 (0-10 mg/kg) was administered via i.p. injection and rats were placed back in the home-cage for 1 hr prior to the return of sweetened alcohol and water. Alcohol intake was measured after 1-h and 24-hrs of access in grams by weighing the drinking bottles. Data were excluded from 1 rat that emptied both bottles fully each day without drinking the solutions; thus, results are presented for a final group of N=11 rats.
Efficacy comparisons to MPEP and Naltrexone. […]

[3] = system: operant alcohol self-administration in Wistar rats; experiment: Operant alcohol self-administration (FR-1), acute treatment; format: in vivo; details: 3 mg/kg IP, 1-h pretreatment
From the text: Twelve operant conditioning chambers designed for rats (30.5 cm×24.1 cm×21.0 cm; Med Associates, Georgia, VT) were located within sound-attenuating cubicles in a devoted room to limit extraneous potential impact by extraneous environmental variables. Each cubicle was equipped with an exhaust fan that provided ventilation and masked external sounds. The chambers were electronically interfaced to a Microsoft Windows based computer that was programmed using investigator developed software to control sessions and record number of lever press responses at 100-ms intervals.
The right wall of each chamber contained a liquid receptacle and a response lever (Med Associates) that was termed the active lever. Lever press responses on the active lever activated a syringe pump (PHM-100, Med Associates) that delivered 0.1 ml of alcohol solution (ethanol 8% v/v+sucrose 2% w/v) into the receptacle over a 1.66-s period. Head entries into the liquid receptacle were recorded when an infrared photo beam was broken. A stimulus light located above the response lever was illuminated during pump activation. Lever presses during reinforcer delivery were recorded but produced no programmed consequence. […] Behavior on this lever serves as a control for motor disruptions and other nonspecific effects of test compounds. […]
Testing the efficacy of Compound 1 to reduce the reinforcing, or rewarding, effects of alcohol. Following establishment of stable baseline self-administration behavior, effects of pre-session treatment with the novel mGluR5 negative allosteric modulator Compound 1 (0, 0.3, 1, 3, and 10 mg/kg, IP) were evaluated on operant alcohol self-administration behavior (n=12 rats). […] Parameters of operant performance were measured, including total lever press responses, number of headpokes into the liquid receptacle, and rate of operant responding, which is a direct measure of positive reinforcement function. […]

Row | Structure (SMILES) | Percent time in compound-paired compartment, Mean Diff., Cocaine - Saline vs. Saline - Saline [1] | Preference Scores (time difference drug-paired minus saline-paired), Mean Diff., Cocaine - Saline vs. Saline - Saline [1] | H2O intake after 24-hr access ([2]; 3 mg/kg i.p., Compound 1 or comparison compounds) | water intake after 1-hr access ([2]; Compound 1 0-10 mg/kg, or Compound 1, MPEP, Naltrexone 3 mg/kg i.p.) | alcohol intake at the 24-hr measurement interval, comparison of equivalent doses ([2]; each drug 3 mg/kg i.p. acute) | alcohol drinking at 1-hr of access vs vehicle control, positive control comparison ([2]; each drug 3 mg/kg i.p. acute, N=11) | EtOH reinforced responses vs vehicle, multiple comparisons [3]
1 | COC(=O)[C@H]1[C@@H](OC(=O)c2ccccc2)C[C@@H]2CC[C@H]1N2C [Cocaine] | 13.86% | 332.9 s |  |  |  |  | 
2 | O=C1CC[C@@]2(O)[C@H]3Cc4ccc(O)c5c4[C@@]2(CCN3CC2CC2)[C@H]1O5 [Naltrexone, reference compound] |  |  | no effect | did not reach statistical significance | only Compound 1 (3 mg/kg) maintained efficacy | significantly decreased alcohol drinking | reduced EtOH reinforced responses
